Measurements from article PMC12040169 (PLOS Biology, 2025).

Assay: in vitro
Conditions: human, hela cells, % viability

| Compound | viability at 28.5 h, 10 µM |
| --- | --- |
| COCCOc1ncccc1OCc1ccccc1 [CBK001456] | 92.9% |
| Cc1ccccc1-c1nnc2n1CCCN2 [CBK200089] | 115% |
| Cc1cccc(-n2nc3c4nonc4ccc3[n+]2[O-])c1C [CBK264626] | 93.6% |
| NNC(=O)/C(=C\c1cccc([N+](=O)[O-])c1)NC(=O)c1ccc(Br)o1 [CBK262573] | 107% |
| CS(=O)(=O)N[C@H]1CO[C@H]2[C@@H]1OC[C@@H]2Nc1nccc(-c2cccs2)n1 [CBK289519] | 92% |
| Cc1[nH]c(=O)[nH]c1C(=O)CCCCC(=O)O [CBK263197] | 94% |
| CC(=O)c1ccc(NC(=O)N[C@H]2CO[C@H]3[C@@H]2OC[C@H]3OCC(N)=O)cc1 [CBK289460] | 117% |
| CCCCNC(=O)CSc1ncccc1C(=O)NCc1cccnc1 [CBK071590] | 91% |
| OCC1CCCN(Cc2c(C3CCCC3)[nH]c3ncccc23)C1 (stereo not drawn) [CBK285332] | 96.1% |
| CN1CCC(OC(=O)COc2ccc(Cl)cc2Cl)CC1 [CBK266389C] | 91% |
| O=S(=O)(/N=C(/NS(=O)(=O)c1cccc2ccccc12)c1ccccc1)c1ccccc1 [CBK263105] | 112% |
| CCN(CC)CCN(C(=O)Nc1ccc(C(N)=O)cc1)C(C)c1ccc(OC)c(OC)c1 (stereo not drawn) [CBK158962] | 108% |
| O=C(COc1cccc2ccccc12)NNC(=O)Cc1ccc(Cl)cc1 [CBK262988] | 112% |
| Cc1ccc(S(=O)(=O)N2C[C@H](O)C[C@H]2C(=O)O)cc1 [CBK289276] | 103% |
| COc1ncc(-c2cncc(NCCc3ccccn3)n2)c(OC)n1 [CBK065287] | 97.7% |
| Cc1csc(NC(=O)CN2CCC(c3ccccc3F)CC2)n1 [CBK283569] | 109% |
| COCCN(Cc1cc2cccc(C)c2nc1O)S(C)(=O)=O [CBK269395] | 99.9% |
| COc1ccc(N(C(C)C(=O)Nc2ccc(Cl)c(Cl)c2)S(C)(=O)=O)cc1 (stereo not drawn) [CBK266872] | 114% |

| Compound | viability at 28.5 h, 10 µM |
| --- | --- |
| COc1ccccc1-c1nccnc1NCc1ccc(C(F)(F)F)cc1 [CBK036788] | 109% |
| Cc1ccc(C(=O)NCC(=O)O)cc1S(=O)(=O)N1CCOCC1 [CBK264534] | 90.9% |
| CCCC(=O)c1ccc(S(=O)(=O)N2CCCN(Cc3cccnc3N3CCOCC3)CC2)cc1 [CBK062900] | 93.9% |
| CCc1ccccc1Nc1nnc(SC(C)C(=O)N2CCCC2)s1 (stereo not drawn) [CBK295197] | 106% |
| CCOC(=O)N1CCC(NS(=O)(=O)c2cccc3cccnc23)CC1 [CBK045453] | 90.6% |
| CCOC(=O)CS(=O)(=O)Cc1cc(Cl)nc(Cl)c1 [CBK005544] | 109% |
| CC(C)CC(C(=O)Nc1nnc(C(C)C)s1)N1C(=O)c2ccccc2C1=O (stereo not drawn) [CBK091610] | 77.3% |
| CCCNC(CC(=O)Nc1ccccc1)C(=O)O (stereo not drawn) [CBK266819] | 95.3% |
| CN1CCCc2c1oc1c(OCc3cccnc3)cccc1c2=O [CBK007904] | 92.1% |
| O=C(O)c1cc2cc(F)ccc2[nH]1 [CBK017929] | 86.3% |
| O=C(O)CCc1c(-c2ccccc2)cc2ccccn12 [CBK266308] | 109% |
| Cc1nc2c(OCc3ccc(F)c(F)c3)cccn2c1N(C)C(=O)CCC1CCCC1 [CBK147202] | 99.3% |
| CCOc1ccc(S(=O)(=O)NCCCN2CCOCC2)c2ccccc12 [CBK018421] | 89.8% |
| CCOc1ccc2ccccc2c1CNCc1cccnc1 [CBK269934C] | 91.8% |
| Cc1ccc(S(N)(=O)=O)cc1NC(=O)Cc1ccccc1 [CBK024413] | 86.7% |
| COc1ccc(OC)c(C2=NO[C@@](CC(=O)O)(C(=O)NC3CCCCC3)C2)c1 [CBK286672] | 92.1% |
| COC(=O)[C@@H](C)NC(=O)[C@@H]1CN(S(C)(=O)=O)CCN1C(=O)c1cccs1 [CBK289623] | 89.6% |
| CC(C#CCN(C)C)N1C(=O)CCC1C (stereo not drawn) [CBK008291G] | 109% |
